What all share (assay type): cell-based, human
The test system of one assay is MCF-7/Vin cells. As to the kind of experiment: Microviscosity of plasma membranes, DPHT fluorescence polarization. The conditions noted are these: OEP inhibitor 8.7, 87, 870 μg/ml, doxorubicin 1 μM, cholesterol 100 μg/ml, Triton X-100 0.05%, 1 hour. An excerpt:
(§1) A key physico-chemical characteristic of cell membranes that affects their physiological activity is microviscosity, a measure of lipid mobility in the bilayer, which plays an important role in membrane permeability and the functioning of membrane proteins. To assess the plasmalemma microviscosity, a fluorescent method is used, based on the use of a lipophilic indicator of diphenylhexatriene (DPHT), whose fluorescence depends on the cell membrane fluidity.
(§2) Cell suspension with a density of 2×10^6 cells/ml was incubated with DPHT at a final concentration of 1 μM for 30 minutes. Next, aliquots (10 μl) of OEP inhibitor solutions were added to the cell suspension using a multichannel dispenser to a final concentration of 8.7; 87 and 870 μg/ml, as well as doxorubicin at a concentration of 1 μM and its composition with an OEP inhibitor (DOX 1 μM+OEP inhibitor 8.7 μg/ml; DOX 1 μM+OEP inhibitor 87 μg/ml). […] Immediately after introducing aliquots of samples, the fluorescence polarization of DPHT was detected for 1 hour with an interval of 10 minutes.

Another assay relates to MCF-7 cells. The assay is described as above. The conditions noted are these: OEP inhibitor 8.7, 87, 870 μg/ml, doxorubicin 1 μM, cholesterol 100 μg/ml, Triton X-100 0.05%, 1 hour.
Description: as §1, §2

A further assay deals with P-gp (ABCB1). Briefly: Immunoblotting of P-gp (ABCB1) expression in MCF-7 cells. The conditions noted are these: 48 hours, doxorubicin 3 μM, OEP inhibitor 261 μg/ml, composition 3 μM: 261 μg/ml. The method, then:
MCF-7, MCF-7-ABCC1-DsRed (with over-expression of MRP-1), MCF-7-ABCC2-BFP (with over-expression of MRP-2), MCF-7-ABCB1-GFP (with P-gp over-expression) cells in concentrations of 3×10^4 cells/cm^2 were cultured in complete DMEM nutrient medium with either doxorubicin added to a final concentration of 3 μM; or an OEP inhibitor to a final concentration of 261 μg/ml; or doxorubicin-OEP inhibitor compositions to a final concentration of 3 μM: 261 μg/ml for 48 hours at 37° C. in the atmosphere of 5% CO2. An adapted and modified ABCAM protocol (http://www.abcam.com/ps/pdf/protocols/wb-beginner.pdf) was used to study proteins by immunoblotting (Western Blot). Monoclonal antibodies to ABCB1 (Cat. No. sc-13131, Santa Cruz) were used at a dilution of 1:200. Anti-mouse antibodies conjugated with HRP—(Cat. No ab6728, Abcam) at a dilution of 1:10,000 were used as secondary. Monoclonal antibodies to β-actin (Cat. No. mAbcam 8226, Abcam) were used at a dilution of 1:2000. The results of the analysis were visualized on ChemiDoc XRS+system (Bio-Rad).

Where a name gives a salt, the structure may show the parent alone.

For `CC(C)CCC[C@@H](C)[C@H]1CC[C@H]2[C@@H]3CC=C4C[C@@H](O)CC[C@]4(C)[C@H]3CC[C@]12C` [Cholesterol, cholesterol], the “polarization of the fluorescence of DPHT (membrane microviscosity)” value (from here on “polarization of the fluorescence of DPHT”) in the assay with MCF-7/Vin cells and with MCF-7 cells was “significantly increased” each time.
For `COc1cccc2c1C(=O)c1c(O)c3c(c(O)c1C2=O)C[C@@](O)(C(=O)CO)C[C@@H]3O[C@H]1C[C@H](N)[C@H](O)[C@H](C)O1` [doxorubicin, Doxorubicin (DOX) hydrochloride], the “polarization of the fluorescence of DPHT” value in the assay on MCF-7/Vin cells and with MCF-7 cells was “did not significantly change” throughout. Further, the “active glycosylated 190 kDa form of ABCB1, immunoblotting” value in the assay on P-gp (ABCB1) is given as “increases the amount of the active form”.
For the molecule Triton X-100, the “polarization of the fluorescence of DPHT” value in the assay with MCF-7/Vin cells and in the assay with MCF-7 cells was “significant decrease” throughout.

Source of the values: patent US10987429B2, “Inhibitor of ATP-dependent cellular reverse transporters and method for producing same” (AO “TATKHIMFARMPREPARATY”, priority 2016, dated 2021).
